What was measured:
[1] = tested on: suspected/confirmed staphylococcal or other Gram-positive infection; test: Clinical effectiveness; type: in vivo, hospitalized adults (patients); conditions: for Length of hospitalization: median [min–max]
[2] = Vancomycin treatment safety outcomes; type: in vivo, hospitalized adults (patients); conditions: for Neutropenia: absolute neutrophil counts < 1000/μL
[3] = Vancomycin clinical pharmacokinetics and serum concentrations; conditions: for AUC per TDM adjusted dose / AUC per initial dose: NONMEM; for AUC per TDM adjusted dose / t1/2 / AUC per initial dose / Initial vancomycin serum concentration, Peak / Initial vancomycin serum concentration, Trough-2 / Initial vancomycin serum concentration, Trough-1: median [IQR]; for Cl / Ke / Vd / t1/2: at treatment initiation; for Cl / Ke / Vd / Post-dose adjustment trough concentration: mean ± SD, SD; for AUC per initial dose: pre-TDM dose; for Initial vancomycin serum concentration, Peak / Initial vancomycin serum concentration, Trough-2 / Initial vancomycin serum concentration, Trough-1: pre-TDM; for Initial vancomycin serum concentration, Peak: 1–2 h post fourth dose infusion; for Initial vancomycin serum concentration, Trough-2: 30 min before the fifth dose; for Initial vancomycin serum concentration, Trough-1: 30 min before the fourth dose
[4] = peak–trough-monitoring group (n = 30)
[5] = trough-only-monitoring group (n = 35)

With `CN[C@H](CC(C)C)C(=O)N[C@H]1C(=O)N[C@@H](CC(N)=O)C(=O)N[C@H]2C(=O)N[C@H]3C(=O)N[C@H](C(=O)N[C@H](C(=O)O)c4cc(O)cc(O)c4-c4cc3ccc4O)[C@H](O)c3ccc(c(Cl)c3)Oc3cc2cc(c3O[C@@H]2O[C@H](CO)[C@@H](O)[C@H](O)[C@H]2O[C@H]2C[C@](C)(N)[C@H](O)[C@H](C)O2)Oc2ccc(cc2Cl)[C@H]1O` [vancomycin] the Therapeutic failure [1, 4] was 7 (23.3) n (%), the Length of hospitalization [1, 4] was 15.5 [4–68.9] days and the Therapeutic failure [1, 5] was 18 (51.4) n (%). The Therapeutic cure ([1]; trough-only-monitoring group (n = 35), clinical and/or microbiologic cure, intention-to-treat) was 17 (48.6) n (%), the Length of hospitalization [1, 5] was 20 [6–117] days and the All-cause mortality [2, 4] was 2 (6.7) n (%). The Neutropenia [2, 4] was 1 (3.3) n (%), the All-cause mortality [2, 5] was 3 (8.6) n (%) and the Neutropenia [2, 5] was 3 (8.6) n (%). The “AUC per TDM adjusted dose” value [3, 4] was 223 [168.82] mg*h/L, the “AUC per TDM adjusted dose” value [3, 5] was 270 [156.02] mg*h/L and the Cl [3, 4] was 4.24 ± 2.20 L/h. For the same compound, the Ke [3, 4] was 0.089 ± 0.051 h⁻¹, the Vd [3, 4] was 51.14 ± 9.96 L and the t1/2 [3, 4] was 7.23 [9.75] h. It also gave a Cl [3, 5] of 4.15 ± 2.22 L/h, a Ke [3, 5] of 0.094 ± 0.05 h⁻¹ and a Vd [3, 5] of 48.5 ± 10.7 L. For the same compound, the t1/2 [3, 5] was 8.01 [11.12] h, the “Post-dose adjustment trough concentration” value [3, 4] was 15.6 ± 3.49 mg/L and the “AUC per initial dose” value [3, 4] was 228 [273.01] mg*h/L. The “AUC per initial dose” value [3, 5] was 227 [195.6] mg*h/L, the “Initial vancomycin serum concentration, Peak” value [3, 4] was 27.9 [17.8] mg/L and the “Initial vancomycin serum concentration, Peak” value [3, 5] was 25 [10] mg/L. For the same compound, the “Initial vancomycin serum concentration, Trough-2” value [3, 4] was 8.9 [15.1] mg/L, the “Initial vancomycin serum concentration, Trough-2” value [3, 5] was 10.6 [10.5] mg/L and the “Initial vancomycin serum concentration, Trough-1” value [3, 4] was 8.4 [12.9] mg/L. For the same compound, the “Initial vancomycin serum concentration, Trough-1” value [3, 5] was 9 [8.3] mg/L and the “Post-dose adjustment trough concentration” value [3, 5] was 16.8 ± 3.09 mg/L.
